{"source": "patent US6030942A", "about": "“Peptides peptide analogs peptidomimetics and other small molecules useful for inhibiting the activity of ribonucleotide reductase” (The Trustees of the University of Pennsylvania, priority 1998, dated 2000)", "origin": "cited, not measured here", "key": {"HSV type 1": {"tested_on": "HSV type 1", "settings": "cited from earlier work"}, "HSV type 2": {"tested_on": "HSV type 2", "settings": "cell culture; read-out: EC50, replication of HSV type 2; cited from earlier work"}, "HSV-1": {"tested_on": "HSV-1", "settings": "murine ocular model; cited from earlier work"}, "HSV": {"tested_on": "HSV", "settings": "cited from earlier work"}}, "note": "Square brackets hold non-standard residues; d marks the D form. Peptide text beside a SMILES is read from it. * marks the point of attachment. Asp(3,3-(CH2)4) = N[C@H](C(=O)O)C1(C(=O)O)CCCC1; Dibenzylacetyl = O=C(C(Cc1ccccc1)Cc1ccccc1)*; Leu(γ-Me)ol = CC(C)(C)C[C@@H](CO)N*; Tle = CC(C)(C)[C@H](N)C(=O)O; NMeV = CN[C@H](C(=O)O)C(C)C; Pyrrolidide = C1CCN(*)C1"}
{"compound": "CC(C)[C@@H](C(=O)N[C@H](C(=O)N[C@@H](CC(=O)N1CCCC1)C(=O)N[C@H](C(=O)N[C@H](CO)CC(C)(C)C)C1(C(=O)O)CCCC1)C(C)(C)C)N(C)C(=O)C(Cc1ccccc1)Cc1ccccc1", "note": "[BI-LD-1263] (Dibenzylacetyl-[NMeV][Tle]D(Pyrrolidide)[Asp(3,3-(CH2)4)]-{Leu(γ-Me)ol})", "values": [{"measurement": "Combination with acyclovir in cell culture", "setting": "HSV type 1; HSV types 1 and 2", "result": "synergistic effect"}, {"measurement": "EC50", "setting": "HSV type 1; cell culture, read-out: EC50, replication of HSV type 1", "result": 3, "unit": "µM"}, {"measurement": "EC50", "setting": "HSV type 2", "result": 4, "unit": "µM"}, {"measurement": "Severity of HSV-1-induced keratitis", "setting": "HSV-1", "result": "reduces the severity"}]}
{"compound": "YAGAVVNDL", "values": [{"measurement": "Inhibition of viral growth in cell culture", "setting": "HSV", "result": "did not inhibit viral growth in cell culture"}]}
